Reference: patent US20230150924A1, “NOVEL COMPOUND HAVING CANCER METASTASIS INHIBITORY ACTIVITY, PREPARATION METHOD THEREFOR, AND PHARMACEUTICAL COMPOSITION FOR INHIBITING CANCER METASTASIS AND INVASION OR TREATING COLORECTAL CANCER, COMPRISING COMPOUND” (CELLGENTEK CO., LTD., priority 2019, published 2023)
Read-outs that look alike come from different tables or passages of the source.

What was measured:
[1] = system: KAI1 promoter; assay: KAI1 promoter luciferase reporter assay in transfected Caco2 cells; type: cell-based, human; conditions: for fold induction at 1 µM: Homo sapiens, Caco-2, 16 h, read-out: Relative KAI promoter activity
[2] = system: invasion of colorectal cancer cells; assay: In vivo relative invation (invasion; EV and KITENIN controls, no method described); conditions: relative to EV (=1); KIT = KITENIN
[3] = 1 μM compound, 16 hours, transfected Caco2 cells, luciferase activity relative to DMSO control (=1)

Row | Structure (SMILES) | fold induction at 1 µM [1, 3] | In vivo relative invation [2] | fold induction at 1 µM [1] | Relative KAI promoter activity [1, 3]
1 | O=C(CNC(=O)c1ccc(CN2CCN(c3ccccn3)CC2)cc1)c1ccccc1 [Example 264, N-(2-oxo-2-phenylethyl)-4-((4-(pyridin-2-yl)piperazin-1-yl)methyl)benzamide] | 1.91 | 1.199 |  | 
2 | COCC(=O)N1CCC(Oc2ccccc2C(=O)NCC(=O)c2ccccc2)CC1 [Example 178, 2-((1-(2-methoxyacetyl)piperidin-4-yl)oxy)-N-(2-oxo-2-phenylethyl)benzamide] | 0.91 | 1.228 |  | 
3 | CCN(C)Cc1cccc(C(=O)NCC(=O)c2cccc(OC)c2)c1 [Example 287, 3-((ethyl (methyl)amino)methyl)-N-(2-(3-methoxyphenyl)-2-oxoethyl)benzamide] | 2.06 | 1.376 |  | 
4 | CN(C)c1ccc(C(=O)CNS(=O)(=O)c2ccc(Cl)cc2)cc1 [Example 108, 4-chloro-N-(2-(4-(dimethylamino)phenyl)-2-oxoethyl)benzenesulfonamide] | 1.36 | 0.989 |  | 
5 | O=C(CNC(=O)c1ccccc1OC1CCN(S(=O)(=O)c2ccccc2)CC1)c1ccccc1 [Example 187, N-(2-oxo-2-phenylethyl)-2-((1-(phenylsulfonyl)piperidin-4-yl)oxy)benzamide] | 1.03 | 1.235 |  | 
6 | Cc1cc(C)cc(C(=O)NCC(=O)c2ccc(N(C)C)cc2)c1 [Example 120, N-(2-(4-(dimethylamino)phenyl)-2-oxoethyl)-3,5-dimethylbenzamide] | 1.38 | 1.097 |  | 
7 | O=C(CNC(=O)c1cccc(OC(F)(F)F)c1)c1ccc(Cl)cc1 [Example 82, N-(2-(4-chlorophenyl)-2-oxoethyl)-3-(trifluoromethoxy)benzamide] | 0.8 | 1.189 |  | 
8 | C#CN(C)Cc1cccc(C(=O)NCC(=O)c2ccccc2)c1 [Example 251, 3-((ethynyl(methyl)amino)methyl)-N-(2-oxo-2-phenylethyl)benzamide] | 2.37 | 1.197 |  | 
9 | O=C(CNC(=O)c1ccccc1OCC(=O)N1CCc2ccccc2C1)c1ccccc1 [Example 227, 2-(2-(3,4-dihydroisoquinolin-2 (1H)-yl)-2-oxoethoxy)-N-(2-oxo-2-phenylethyl)benzamide] | 1.01 | 1.153 |  | 
10 | COCC(=O)NCC(=O)c1ccccc1 [Example 23, 2-methoxy-N-(2-oxo-2-phenylethyl) acetamide] | 1 | 1.104 |  | 
11 | COc1cccc(C(=O)CNC(=O)c2cccc(CN3CCOCC3)c2)c1 [Example 293, N-(2-(3-methoxyphenyl)-2-oxoethyl)-3-(morpholinomethyl)benzamide] | 1.25 | 1.174 |  | 
12 | O=C(CNC(=O)c1ccccc1Cl)c1ccccc1 [Example 6, 2-chloro-N-(2-oxo-2-phenylethyl)benzamide] |  | 1.144 | 1.91 | 
13 | C=CC(=O)NCC(=O)c1ccc(N(C)C)cc1 [Example 95, N-(2-(4-(dimethylamino)phenyl)-2-oxoethyl)acrylamide] | 1.21 | 1.16 |  | 
14 | C/C=C/C(=O)N1CCC(Oc2ccccc2C(=O)NCC(=O)c2ccccc2)CC1 [Example 158, (E)-2-((1-(but-2-enoyl)piperidin-4-yl)oxy)-N-(2-oxo-2-phenylethyl)benzamide] | 1 | 1.171 |  | 
15 | COc1cccc(C(=O)CNC(=O)c2cccc(CN(C)Cc3ccccc3)c2)c1 [Example 286, 3-((benzyl (methyl)amino)methyl)-N-(2-(3-methoxyphenyl)-2-oxoethyl)benzamide] | 1.43 | 1.233 |  | 
16 | CCCCN(C)Cc1ccc(C(=O)NCC(=O)c2ccccc2)cc1 [Example 271, 4-((butyl (methyl)amino)methyl)-N-(2-oxo-2-phenylethyl)benzamide] | 1.31 | 1.228 |  | 
17 | COc1ccc(S(=O)(=O)NCC(=O)c2ccc(Cl)cc2)cc1 [Example 71, N-(2-(4-chlorophenyl)-2-oxoethyl)-4-methoxybenzenesulfonamide] | 0.85 | 1.135 |  | 
18 | CC(C)(C)OC(=O)N1CCN(Cc2cccc(C(=O)NCC(=O)c3ccccc3)c2)CC1 [Example 245, tert-butyl 4-(3-((2-oxo-2-phenylethyl)carbamoyl)benzyl) piperazine-1-carboxylate] | 1.35 | 1.126 |  | 
19 | CN(C)c1ccc(C(=O)CNC(=O)c2ccc(C(F)(F)F)cc2)cc1 [Example 114, N-(2-(4-(dimethylamino)phenyl)-2-oxoethyl)-4-(trifluoromethyl)benzamide] | 1.38 | 1.197 |  | 

Row | Structure (SMILES) | fold induction at 1 µM [1, 3] | In vivo relative invation [2] | fold induction at 1 µM [1] | Relative KAI promoter activity [1, 3]
20 | Cc1cccc(C(=O)NCC(=O)c2ccc(N3CCOCC3)cc2)c1 [Example 141, 3-methyl-N-(2-(4-morpholinophenyl)-2-oxoethyl)benzamide] | 1.06 | 1.393 |  | 
21 | COc1ccc(S(=O)(=O)N2CCC(Oc3ccccc3C(=O)NCC(=O)c3ccccc3)CC2)cc1 [Example 189, 2-((1-((4-methoxyphenyl)sulfonyl)piperidin-4-yl)oxy)-N-(2-oxo-2-phenylethyl)benzamide] | 0.9 | 1.185 |  | 
22 | COc1ccccc1N1CCN(Cc2cccc(C(=O)NCC(=O)c3ccccc3)c2)CC1 [Example 236, 3-((4-(2-methoxyphenyl)piperazin-1-yl)methyl)-N-(2-oxo-2-phenylethyl)benzamide] | 1.3 | 1.112 |  | 
23 | CN(Cc1ccccc1C(=O)NCC(=O)c1ccccc1)C1CCCCC1 [Example 298, 2-((cyclohexyl(methyl)amino)methyl)-N-(2-oxo-2-phenylethyl)benzamide] | 1.34 | 1.213 |  | 
24 | C=CCN(CC=C)Cc1cccc(C(=O)NCC(=O)c2ccccc2)c1 [Example 241, 3-((diallylamino)methyl)-N-(2-oxo-2-phenylethyl)benzamide] | 1.1 | 1.126 |  | 
25 | COc1ccc(C(=O)NCC(=O)c2ccc(Cl)cc2)cc1 [Example 62, N-(2-(4-chlorophenyl)-2-oxoethyl)-4-methoxybenzamide] |  | 1.122 |  | 1.03
26 | COc1cccc(C(=O)CNC(=O)c2cccc(CC3CCN(c4ccccc4F)CC3)c2)c1 [Example 281, 3-((1-(2-fluorophenyl)piperidin-4-yl)methyl)-N-(2-(3-methoxyphenyl)-2-oxoethyl)benzamide] | 1.52 | 1.236 |  | 
27 | Cc1cccc(C(=O)N2CCC(Oc3ccccc3C(=O)NCC(=O)c3ccccc3)CC2)c1 [Example 163, 2-((1-(3-methylbenzoyl)piperidin-4-yl)oxy)-N-(2-oxo-2-phenylethyl)benzamide] | 1.1 | 1.163 |  | 
28 | Cc1ccccc1C(=O)NCC(=O)c1ccccc1 [Example 11, 2-methyl-N-(2-oxo-2-phenylethyl)benzamide] | 1.82 | 1.036 |  | 
29 | Cc1ccccc1C(=O)NCC(=O)c1cccnc1 [Example 135, 2-methyl-N-(2-oxo-2-(pyridin-3-yl)ethyl)benzamide] | 1.3 | 1.485 |  | 
30 | CN(C)c1ccc(C(=O)CNC(=O)c2cccc(Cl)c2)cc1 [Example 94, 3-chloro-N-(2-(4-(dimethylamino)phenyl)-2-oxoethyl)benzamide] | 1.81 | 1.096 |  | 
31 | O=C(COc1ccccc1C(=O)NCC(=O)c1ccccc1)NCc1ccccc1 [Example 204, 2-(2-(benzylamino)-2-oxoethoxy)-N-(2-oxo-2-phenylethyl)benzamide] | 1.3 | 1.095 |  | 
32 | O=C(CNC(=O)c1ccccc1OC1CCN(C(=O)c2cccc(OC(F)(F)F)c2)CC1)c1ccccc1 [Example 200, N-(2-oxo-2-phenylethyl)-2-((1-(3-(trifluoromethoxy)benzoyl)piperidin-4-yl)oxy)benzamide] | 1.01 | 1.074 |  | 
33 | CCC(=O)NCC(=O)c1ccc(N(C)C)cc1 [Example 99, N-(2-(4-(dimethylamino)phenyl)-2-oxoethyl)propionamide] | 1.71 | 1.134 |  | 
34 | O=C(CNC(=O)c1ccccc1OC1CCN(C(=O)c2cccc([N+](=O)[O-])c2)CC1)c1ccccc1 [Example 195, 2-((1-(3-nitrobenzoyl)piperidin-4-yl)oxy)-N-(2-oxo-2-phenylethyl)benzamide] | 1.08 | 1.139 |  | 
35 | CC(C)(C)CC(=O)N1CCC(Oc2ccccc2C(=O)NCC(=O)c2ccccc2)CC1 [Example 170, 2-((1-(3,3-dimethylbutanoyl)piperidin-4-yl)oxy)-N-(2-oxo-2-phenylethyl)benzamide] | 1.03 | 1.244 |  | 
36 | CN(C)c1ccc(C(=O)CNC(=O)CC(C)(C)C)cc1 [Example 102, N-(2-(4-(dimethylamino)phenyl)-2-oxoethyl)-3,3-dimethylbutanamide] | 2.53 | 1.121 |  | 
37 | COc1ccc(S(=O)(=O)NCC(=O)c2ccc(N(C)C)cc2)cc1 [Example 111, N-(2-(4-(dimethylamino)phenyl)-2-oxoethyl)-4-methoxybenzenesulfonamide] | 1.44 | 1.065 |  | 
38 | COc1ccc(S(=O)(=O)NCC(=O)c2ccc(N3CCOCC3)cc2)cc1 [Example 150, 4-methoxy-N-(2-(4-morpholinophenyl)-2-oxoethyl)benzenesulfonamide] | 1.14 | 1.071 |  | 
